Measurements published in ChEMBL document CHEMBL4038298, “Ester- and amide-containing multiQACs: Exploring multicationic soft antimicrobial agents” (Bioorg Med Chem Lett, 2017).

What was measured:
[1] = Stability of the compound in pure water by LCMS method; assay type: physicochemical
Staphylococcus aureus [2] = experiment: Antibacterial activity against hospital-acquired methicillin-resistant Staphylococcus aureus ATCC 33592 incubated for 72 hrs; assay type: functional; conditions: ATCC 33592, 72 h
Pseudomonas aeruginosa = experiment: Antibacterial activity against Pseudomonas aeruginosa PAO1 incubated for 72 hrs; assay type: functional; conditions: PAO1, 72 h
Escherichia coli = experiment: Antibacterial activity against Escherichia coli MC4100 incubated for 72 hrs; assay type: functional; conditions: str. K-12 substr. MC4100, 72 h
Enterococcus faecalis = experiment: Antibacterial activity against Enterococcus faecalis OG1RF incubated for 72 hrs; assay type: functional
Staphylococcus aureus [3] = experiment: Antibacterial activity against community acquired methicillin-resistant Staphylococcus aureus USA300-0114 incubated for 72 hrs; assay type: functional; conditions: USA300-0114, 72 h
Staphylococcus aureus [4] = experiment: Antibacterial activity against methicillin-susceptible Staphylococcus aureus SH1000 incubated for 72 hrs; assay type: functional; conditions: SH1000, 72 h

Row | Structure (SMILES) | Stability [1] | MIC (Staphylococcus aureus [2]) | MIC (Pseudomonas aeruginosa) | MIC (Escherichia coli) | MIC (Enterococcus faecalis) | MIC (Staphylococcus aureus [3]) | MIC (Staphylococcus aureus [4])
1 | CCCCCCOC(=O)C[N+](C)(C)Cc1ccccc1.[Br-] | Stable | > 250 µM | > 250 µM | > 250 µM | > 250 µM | > 250 µM | > 250 µM
2 | CCCCCCCCCOC(=O)C[N+](C)(C)CC[N+](C)(C)CC(=O)OCCCCCCCCC.[Br-].[Br-] | Stable | 8 µM | 32 µM | 16 µM | 16 µM | 4 µM | 2 µM
3 | CCCCCCCCOC(=O)C[N+](C)(C)CC[N+](C)(C)CC(=O)OCCCCCCCC.[Br-].[Br-] | Stable | 32 µM | 125 µM | 63 µM | 63 µM | 16 µM | 32 µM
4 | CCCCCCCCCCCCCCOC(=O)C[N+](C)(C)Cc1ccccc1.[Br-] | Stable | 1 µM | 250 µM | 8 µM | 4 µM | 2 µM | 1 µM
5 | CCCCCCCCOC(=O)C[N+](C)(C)CCCN(CCC[N+](C)(C)CC(=O)OCCCCCCCC)CCC[N+](C)(C)CC(=O)OCCCCCCCC.[Br-].[Br-].[Br-] | Stable | 4 µM | 63 µM | 8 µM | 8 µM | 4 µM | 2 µM
6 | CCCCCCCCCCCCOC(=O)C[N+](C)(C)Cc1ccccc1.[Br-] | Stable | 2 µM | 63 µM | 16 µM | 4 µM | 2 µM | 2 µM
7 | CCCCCCCCCOC(=O)C[N+](C)(C)CCCN(CCC[N+](C)(C)CC(=O)OCCCCCCCCC)CCC[N+](C)(C)CC(=O)OCCCCCCCCC.[Br-].[Br-].[Br-] | Stable | 4 µM | 16 µM | 4 µM | 8 µM | 4 µM | 2 µM
8 | CCCCCCCCOC(=O)C[N+](C)(C)Cc1ccccc1.[Br-] | Stable | 125 µM | > 250 µM | 250 µM | 250 µM | 250 µM | 125 µM
9 | CCCCCCCCCCOC(=O)C[N+](C)(C)CCC[N+](C)(CCC[N+](C)(C)CC(=O)OCCCCCCCCCC)CC(=O)OCCCCCCCCCC.[Br-].[Br-].[Br-] | Stable | 4 µM | 16 µM | 8 µM | 8 µM | 4 µM | 4 µM
10 | CCCCCCCCOC(=O)C[N+](C)(C)CCC[N+](C)(CCC[N+](C)(C)CC(=O)OCCCCCCCC)CC(=O)OCCCCCCCC.[Br-].[Br-].[Br-] | Stable | 8 µM | 32 µM | 16 µM | 16 µM | 8 µM | 8 µM
11 | CCCCCCCCCOC(=O)C[N+](C)(C)Cc1ccccc1.[Br-] | Stable | 63 µM | > 250 µM | 125 µM | 125 µM | 32 µM | 32 µM
12 | CCCCCCOC(=O)C[N+](C)(C)CC[N+](C)(C)CC(=O)OCCCCCC.[Br-].[Br-] | Stable | > 250 µM | > 250 µM | > 250 µM | > 250 µM | 250 µM | > 250 µM
13 | CCCCCCOC(=O)C[N+](C)(C)CCN1CC[N+](C)(CC(=O)OCCCCCC)CC1.[Br-].[Br-] | Stable | > 250 µM | > 250 µM | > 250 µM | > 250 µM | > 250 µM | > 250 µM
14 | CCCCCCCCCCCCOC(=O)C[N+](C)(C)CCCN(CCC[N+](C)(C)CC(=O)OCCCCCCCCCCCC)CCC[N+](C)(C)CC(=O)OCCCCCCCCCCCC.[Br-].[Br-].[Br-] | Stable | 8 µM | > 250 µM | 8 µM | 8 µM | 8 µM | 4 µM
15 | CCCCCCCCOC(=O)C[N+](C)(C)CCN1CC[N+](C)(CC(=O)OCCCCCCCC)CC1.[Br-].[Br-] | Stable | 63 µM | > 250 µM | 250 µM | 63 µM | 32 µM | > 250 µM
16 | CCCCCCCOC(=O)C[N+](C)(C)CC[N+](C)(C)CC(=O)OCCCCCCC.[Br-].[Br-] | Stable | 250 µM | > 250 µM | > 250 µM | > 250 µM | 125 µM | 250 µM
17 | CCCCCCCOC(=O)C[N+](C)(C)CCCN(CCC[N+](C)(C)CC(=O)OCCCCCCC)CCC[N+](C)(C)CC(=O)OCCCCCCC.[Br-].[Br-].[Br-] | Stable | 32 µM | > 250 µM | 63 µM | 32 µM | 8 µM | 16 µM
